Measured values taken from patent US20140171371A1, “Compositions And Methods For The Diagnosis of Schizophrenia” (The Trustees of Columbia University in the City of New York, priority 2011, published 2014).

Test system: lymphoblastoid cell lines
Test: Cyclic AMP accumulation in lymphoblastoid cell lines in response to another GPCR agonist (specificity control)
Type: cell-based, human
Conditions: PGE2 1 μM + forskolin 10 μM, IBMX 200 μM pre-incubation, 10 min, fold-change over forskolin/IBMX alone
Description: Reactions were terminated by pelleting the cells, aspiration of the medium and addition of 100 μl of cold 7.5% (wt/vol) trichloroacetic acid (TCA). Cyclic AMP content in TCA extracts was determined by radioimmunoassay and normalized to the number of cells per well. […] Results presented for each subject represents the mean and standard error of at least ten replicates. Standard error and P-values for pooled results were computed across individuals (FIG. 3).

## CCCCC[C@H](O)/C=C/[C@H]1[C@H](O)CC(=O)[C@@H]1C/C=C\CCCC(=O)O [prostaglandin E2]
  cAMP accumulation in response to agonist, 7q36.3 duplication carriers compared to controls: no group difference
Listed as PGE2
  cAMP accumulation in response to agonist, 7q36.3 duplication carriers compared to controls: No difference
Listed as Prostaglandin E2
  cAMP accumulation in response to agonist, 7q36.3 duplication carriers compared to controls: No significant differences
